The term Kd denotes a measure of binding affinity in units of concentration. Lower therefore signals tighter binding. The IC50 is the concentration needed to halve the response being measured. In general, EC50 refers to the concentration that produces a half-maximal response.

SMILES strings stand for the structures.

The target in assay [1] is BCL6 BTB domain (Homo sapiens (Human), UniProt P41182). The assay can be described thus: Surface plasmon resonance (SPR) assay. Format: binding. The note with it: BCL6 BTB domain captured on SA chip, single cycle kinetics. A general note: SPR reads the build-up and loss of mass on a sensor chip optically.
The test system of assay [2] is Karpas422 cells. The assay can be described thus: Tumor cell growth inhibition assay. Format: cell-based. Conditions: Homo sapiens, KARPAS-422, 144 h, read-out: Tumor Growth Inhibition in Karpas-422 (IC50, uM), Karpas422 cells, six days, ATPlite. Summed up: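 Growth inhibition was measured by ATPlite luminescence after six days of culture at 37° C. in 5% CO2. Karpas422 cells were seeded at 2,000 per well in Alpha-MEM plus 10% FBS. Compounds were given as a 10-point concentration series with a highest dose of 5 uM.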
On the technique in general: ATP-based viability assays read luminescence as a measure of living cells.

Assay [3] relates to BCL6 reporter construct (3xBCL6-TK-Luc) in SuDHL4 cells. The assay can be described thus: Cell-based luciferase assay. The note with it: Homo sapiens, SU-DHL-4, 48 h, read-out: Luciferase-Assay EC50, uM), SuDHL4-3xBCL6-TK-Luc cells, two days, high dose 10 uM. Summed up: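 SuDHL4 cells stably carrying a 3×BCL6-site TK-promoter firefly luciferase reporter, seeded at 15,000 cells/well, were dosed over a 10-point range (top 10 uM) and grown two days at 37 °C, 5% CO2. Luminescence then read after adding neolite reagent at room temperature.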

Molecule `C[C@H]1CN(C)CCN1c1cc(NC(=O)Cn2cc(-c3cc(F)c(O)c(C(N)=O)c3)c3c(=O)n(CCC(=O)c4cnn(C)c4)cnc32)c(Cl)c(F)n1` [Compound I-430, (S)-5-(7-(2-((3-chloro-6-(2,4-dimethylpiperazin-1-yl)-2-fluoropyridin-4-yl)amino)-2-oxoethyl)-3-(3-(1-methyl-1H-pyrazol-4-yl)-3-oxopropyl)-4-oxo-4,7-dihydro-3H-pyrrolo[2,3-d]pyrimidin-5-yl)-3-fluoro-2-hydroxybenzamide] came in with a Kd in assay [1] of 23.2 nM. Moreover, the IC50 in assay [2] turned out to be 0.38 µM. Further, the EC50 in assay [3] was 0.622 µM.
The matching figures for `CCN1CCN(c2cc(NC(=O)Cn3cc(-c4cc(Cl)c(O)c(C(N)=O)c4)c4c(=O)n(C)c(C)nc43)c(Cl)cn2)[C@@H](C)C1` [Compound I-431]: 30.7 nM, 0.175 µM and 0.193 µM.
As to `C[C@H]1CN(C)CCN1c1cc(NC(=O)Cn2cc(-c3cc(F)c(O)c(C(N)=O)c3)c3c(=O)n(CC#Cc4cnn(C)c4)cnc32)c(Cl)c(F)n1` [Compound I-432, (S)-5-(7-(2-((3-chloro-6-(2,4-dimethylpiperazin-1-yl)-2-fluoropyridin-4-yl)amino)-2-oxoethyl)-3-(3-(1-methyl-1H-pyrazol-4-yl)prop-2-yn-1-yl)-4-oxo-4,7-dihydro-3H-pyrrolo[2,3-d]pyrimidin-5-yl)-3-fluoro-2-hydroxybenzamide], binding in assay [1] was put at a Kd of 2.39 nM. In addition, the IC50 in assay [2] is 0.0181 µM. In assay [3], the EC50 turned out to be 0.0347 µM.
The corresponding values for `CN(C)C1CN(c2cc(NC(=O)Cn3cc(-c4cc(F)c(O)c(C(N)=O)c4)c4c(=O)n(C)cnc43)c(Cl)cn2)C1` [Compound I-433] are 8.42 nM, 0.201 µM and 0.548 µM.
The matching figures for `Cc1nc2c(c(-c3cc(Cl)c(O)c(C(N)=O)c3)cn2CC(=O)Nc2cc(N3CCN(C4COC4)C[C@@H]3C)nc(F)c2Cl)c(=O)n1C` [Compound I-434]: 5.45 nM, 0.05 µM and 0.0381 µM.
The matching figures for `CCN1CCN(c2cc(NC(=O)Cn3cc(-c4cc(C(N)=O)c(O)c(F)c4F)c4c(=O)n(C)c(C)nc43)c(Cl)cn2)[C@@H](C)C1` [Compound I-435]: 48.9 nM, 0.415 µM and 0.847 µM.
With `Cn1cnc2c(c(-c3cc(F)c(O)c(C(N)=O)c3)cn2CC(=O)Nc2cc(N3C4CCC3COC4)ncc2Cl)c1=O` [Compound I-436], the dissociation constant Kd in assay [1] was 14.1 nM. For the same molecule, the IC50 in assay [2] is 0.401 µM. Further, the EC50 in assay [3] was found to be 0.803 µM.
The corresponding values for `C[C@H]1CN(C2COC2)CCN1c1cc(NC(=O)Cn2cc(-c3cc(C(N)=O)c(O)c(F)c3F)c3c(=O)n(C)cnc32)c(Cl)c(F)n1` [Compound I-437] are 11.3 nM, 0.124 µM and 0.231 µM.
The corresponding values for `C[C@H]1CN(C2COC2)CCN1c1cc(NC(=O)Cn2cc(-c3cc(F)c(O)c(C(N)=O)c3)c3c(=O)n(C)cnc32)c(Cl)c(F)n1` [Compound I-438] are 2.5 nM, 0.0508 µM and 0.0686 µM.
The corresponding values for `CO[C@H]1CC(c2cc(NC(=O)Cn3cc(-c4cc(Cl)c(O)c(C(N)=O)c4)c4c(=O)n(C)cnc43)c(Cl)c(F)n2)C[C@H]1F` (stereo partly drawn) [Compound I-439] are 32.9 nM, 0.28 µM and 0.267 µM.
In turn, `CO[C@@H]1CC(c2cc(NC(=O)Cn3cc(-c4cc(Cl)c(O)c(C(N)=O)c4)c4c(=O)n(C)cnc43)c(Cl)c(F)n2)C[C@@H]1F` (stereo partly drawn) [Compound I-440] came in with a Kd in assay [1] of 15.8 nM. Moreover, the IC50 in assay [2] worked out at 0.291 µM. Besides, the EC50 in assay [3] turned out to be 0.286 µM.
The corresponding values for `CO[C@H]1CN(c2cc(NC(=O)Cn3cc(-c4cc(C(N)=O)c(O)c(F)c4F)c4c(=O)n(C)cnc43)c(Cl)c(F)n2)C[C@H]1F` [Compound I-441] are 22.3 nM, 0.338 µM and 0.324 µM.
The matching figures for `CO[C@@H]1CN(c2cc(NC(=O)Cn3cc(-c4cc(C(N)=O)c(O)c(F)c4F)c4c(=O)n(C)cnc43)c(Cl)c(F)n2)C[C@@H]1F` [Compound I-442]: 21.8 nM, 0.266 µM and 0.386 µM.
In assay [1], `C[C@H]1CN(CC2CC2)CCN1c1cc(NC(=O)Cn2cc(-c3cc(C(N)=O)c(O)c(F)c3F)c3c(=O)n(C)cnc32)c(Cl)c(F)n1` [Compound I-443] showed a Kd of 18.6 nM. For the same molecule, the IC50 in assay [2] amounted to 0.149 µM. Besides, the EC50 in assay [3] turned out to be 0.285 µM.
The corresponding values for `C[C@H]1CN(CC2CC2)CCN1c1cc(NC(=O)Cn2cc(-c3cc(Cl)c(O)c(C(N)=O)c3)c3c(=O)n(C)cnc32)c(Cl)c(F)n1` [Compound I-444] are 19.8 nM, 0.104 µM and 0.239 µM.
`C[C@H]1CN(CC2CC2)CCN1c1cc(NC(=O)Cn2cc(-c3cc(F)c(O)c(C(N)=O)c3)c3c(=O)n(C)cnc32)c(Cl)c(F)n1` [Compound I-445]: binding in assay [1] was characterised by a dissociation constant (Kd) of 7.32 nM. Also, the IC50 in assay [2] worked out at 0.0622 µM. The EC50 in assay [3] is 0.0854 µM.
In assay [1], `COCCN1CCN(c2cc(NC(=O)Cn3cc(-c4cc(C(N)=O)c(O)c(F)c4F)c4c(=O)n(C)cnc43)c(Cl)c(F)n2)[C@@H](C)C1` [Compound I-446] showed a Kd of 7.29 nM. In assay [2], the IC50 came out at 0.137 µM. Further, the 50% effective concentration (EC50) in assay [3] is 0.157 µM.
The corresponding values for `COCCN1CCN(c2cc(NC(=O)Cn3cc(-c4cc(Cl)c(O)c(C(N)=O)c4)c4c(=O)n(C)cnc43)c(Cl)c(F)n2)[C@@H](C)C1` [Compound I-447] are 9.02 nM, 0.0709 µM and 0.113 µM.
The matching figures for `COCCN1CCN(c2cc(NC(=O)Cn3cc(-c4cc(F)c(O)c(C(N)=O)c4)c4c(=O)n(C)cnc43)c(Cl)c(F)n2)[C@@H](C)C1` [Compound I-448]: 3.42 nM, 0.0446 µM and 0.0483 µM.
The corresponding values for `CN1CC2CC(C1)N2c1cc(NC(=O)Cn2cc(-c3cc(Cl)c(O)c(C(N)=O)c3)c3c(=O)n(C)cnc32)c(Cl)cn1` [Compound I-449] are 60.3 nM, 1.97 µM and 2.48 µM.
`C[C@H]1CN(CCO)CCN1c1cc(NC(=O)Cn2cc(-c3cc(C(N)=O)c(O)c(F)c3F)c3c(=O)n(C)cnc32)c(Cl)cn1` [Compound I-452, (S)-5-(7-(2-((5-chloro-2-(4-(2-hydroxyethyl)-2-methylpiperazin-1-yl)pyridin-4-yl)amino)-2-oxoethyl)-3-methyl-4-oxo-4,7-dihydro-3H-pyrrolo[2,3-d]pyrimidin-5-yl)-3,4-difluoro-2-hydroxybenzamide]: in assay [1], binding was put at a Kd of 13.6 nM. Further, the IC50 in assay [2] came out at 1.52 µM. The EC50 in assay [3] was 2.6 µM.
The molecule `C[C@H]1CN(CCC(F)(F)F)CCN1c1cc(NC(=O)Cn2cc(-c3cc(C(N)=O)c(O)c(F)c3F)c3c(=O)n(C)cnc32)c(Cl)cn1` [Compound I-453] yielded a Kd in assay [1] of 54.3 nM. Further, the IC50 in assay [2] turned out to be 0.16 µM. The EC50 in assay [3] stood at 0.41 µM.
In turn, `C[C@@H](C1CC1)N1CCN(c2cc(NC(=O)Cn3cc(-c4cc(C(N)=O)c(O)c(F)c4F)c4c(=O)n(C)cnc43)c(Cl)c(F)n2)[C@@H](C)C1` [Compound I-454] gave a Kd in assay [1] of 13.5 nM. Also, the IC50 in assay [2] amounted to 0.244 µM. Also, the EC50 in assay [3] was determined as 0.306 µM.

The values are drawn from US11518764B2, “Substituted heteroaryls as inhibitors of the BCL6 BTB domain protein-protein interaction” (Ontario Institute for Cancer Research (OICR), priority 2018, dated 2022).
